Measured values: ChEMBL document CHEMBL3046559, “Sterile oat (Avena sterilis L.) cross-resistance profile to ACCase-inhibiting herbicides in Greece” (2012)

Columns and labels:
Format in all cases: functional
[1] = test system: Avena sterilis; assay: Herbicidal activity against Avena sterilis accession P07 assessed as weed survival at 32 times field recommended herbicide dose
[2] = test system: Avena sterilis; assay: Herbicidal activity against Avena sterilis accession P15 assessed as weed survival at 8 times field recommended herbicide dose
[3] = test system: Avena sterilis; assay: Herbicidal activity against Avena sterilis accession P20 assessed as weed survival at 4 times field recommended herbicide dose
[4] = test system: Avena sterilis; assay: Herbicidal activity against Avena sterilis accession P02 assessed as weed survival at 1 times field recommended herbicide dose
[5] = test system: Avena sterilis; assay: Herbicidal activity against Avena sterilis accession P01 assessed as weed survival at 1 times field recommended herbicide dose
[6] = test system: Avena sterilis; assay: Herbicidal activity against Avena sterilis accession P11 assessed as weed survival at 1 times field recommended herbicide dose
[7] = test system: Avena sterilis; assay: Herbicidal activity against Avena sterilis accession P05 assessed as weed survival at 4 times field recommended herbicide dose
[8] = test system: Avena sterilis; assay: Herbicidal activity against Avena sterilis accession P01 assessed as weed survival at 32 times field recommended herbicide dose
[9] = test system: Avena sterilis; assay: Herbicidal activity against Avena sterilis accession P20 assessed as weed survival at 8 times field recommended herbicide dose
[10] = test system: Avena sterilis; assay: Herbicidal activity against Avena sterilis accession P08 assessed as weed survival at 32 times field recommended herbicide dose
[11] = test system: Avena sterilis; assay: Herbicidal activity against Avena sterilis accession P19S assessed as induction of weed mortality
[12] = test system: Avena sterilis; assay: Herbicidal activity against Avena sterilis accession P22 assessed as weed survival at 8 times field recommended herbicide dose
[13] = test system: Avena sterilis; assay: Herbicidal activity against Avena sterilis accession P01 assessed as weed survival at 4 times field recommended herbicide dose
[14] = test system: Avena sterilis; assay: Herbicidal activity against Avena sterilis accession P12 assessed as weed survival at 8 times field recommended herbicide dose
[15] = test system: Avena sterilis; assay: Herbicidal activity against Avena sterilis accession P10S assessed as induction of weed mortality
[16] = test system: Avena sterilis; assay: Herbicidal activity against Avena sterilis accession P03 assessed as weed survival at 4 times field recommended herbicide dose
[17] = test system: Avena sterilis; assay: Herbicidal activity against Avena sterilis accession P16 assessed as weed survival at 1 times field recommended herbicide dose
[18] = test system: Avena sterilis; assay: Herbicidal activity against Avena sterilis accession P19S assessed as weed survival at 1/32 times field recommended herbicide dose
[19] = test system: Avena sterilis; assay: Herbicidal activity against Avena sterilis accession P10S assessed as weed survival at 1/16 times field recommended herbicide dose
[20] = test system: Avena sterilis; assay: Herbicidal activity against Avena sterilis accession P16 assessed as weed survival at 8 times field recommended herbicide dose
[21] = test system: Avena sterilis; assay: Herbicidal activity against Avena sterilis accession P22 assessed as weed survival at 32 times field recommended herbicide dose
[22] = test system: Avena sterilis; assay: Herbicidal activity against Avena sterilis accession P12 assessed as weed survival at 32 times field recommended herbicide dose
[23] = test system: Avena sterilis; assay: Herbicidal activity against Avena sterilis accession P21S assessed as induction of weed mortality
[24] = test system: Avena sterilis; assay: Herbicidal activity against Avena sterilis accession P17 assessed as weed survival at 16 times field recommended herbicide dose
[25] = test system: Avena sterilis; assay: Herbicidal activity against Avena sterilis accession P14 assessed as weed survival at 1 times field recommended herbicide dose
[26] = test system: Avena sterilis; assay: Herbicidal activity against Avena sterilis accession P16 assessed as induction of weed mortality
[27] = test system: Avena sterilis; assay: Herbicidal activity against Avena sterilis accession P16 assessed as weed survival at 4 times field recommended herbicide dose
[28] = test system: Avena sterilis; assay: Herbicidal activity against Avena sterilis accession P16 assessed as weed survival at 32 times field recommended herbicide dose
[29] = test system: Avena sterilis; assay: Herbicidal activity against Avena sterilis accession P22 assessed as induction of weed mortality
[30] = test system: Avena sterilis; assay: Herbicidal activity against Avena sterilis accession P01 assessed as induction of weed mortality
[31] = test system: Avena sterilis; assay: Herbicidal activity against Avena sterilis accession P22 assessed as weed survival at 1 times field recommended herbicide dose
[32] = test system: Avena sterilis; assay: Herbicidal activity against Avena sterilis accession P17 assessed as weed survival at 8 times field recommended herbicide dose
[33] = test system: Avena sterilis; assay: Herbicidal activity against Avena sterilis accession P20 assessed as weed survival at 16 times field recommended herbicide dose
[34] = test system: Avena sterilis; assay: Herbicidal activity against Avena sterilis accession P07 assessed as weed survival at 1 times field recommended herbicide dose
[35] = test system: Avena sterilis; assay: Herbicidal activity against Avena sterilis accession P02 assessed as induction of weed mortality
[36] = test system: Avena sterilis; assay: Herbicidal activity against Avena sterilis accession P05 assessed as weed survival at 1 times field recommended herbicide dose
[37] = test system: Avena sterilis; assay: Herbicidal activity against Avena sterilis accession P09 assessed as induction of weed mortality
[38] = test system: Avena sterilis; assay: Herbicidal activity against Avena sterilis accession P13S assessed as weed survival at 1/32 times field recommended herbicide dose
[39] = test system: Avena sterilis; assay: Herbicidal activity against Avena sterilis accession P09 assessed as weed survival at 4 times field recommended herbicide dose
[40] = test system: Avena sterilis; assay: Herbicidal activity against Avena sterilis accession P14 assessed as weed survival at 16 times field recommended herbicide dose
[41] = test system: Avena sterilis; assay: Herbicidal activity against Avena sterilis accession P18 assessed as weed survival at 1 times field recommended herbicide dose
[42] = test system: Avena sterilis; assay: Herbicidal activity against Avena sterilis accession P14 assessed as weed survival at 8 times field recommended herbicide dose
[43] = test system: Avena sterilis; assay: Herbicidal activity against Avena sterilis accession P04 assessed as weed survival at 16 times field recommended herbicide dose
[44] = test system: Avena sterilis; assay: Herbicidal activity against Avena sterilis accession P08 assessed as induction of weed mortality
[45] = test system: Avena sterilis; assay: Herbicidal activity against Avena sterilis accession P14 assessed as induction of weed mortality
[46] = test system: Avena sterilis; assay: Herbicidal activity against Avena sterilis accession P03 assessed as weed survival at 8 times field recommended herbicide dose
[47] = test system: Avena sterilis; assay: Herbicidal activity against Avena sterilis accession P08 assessed as weed survival at 8 times field recommended herbicide dose
[48] = test system: Avena sterilis; assay: Herbicidal activity against Avena sterilis accession P21S assessed as weed survival at 1/32 times field recommended herbicide dose
[49] = test system: Avena sterilis; assay: Herbicidal activity against Avena sterilis accession P01 assessed as weed survival at 16 times field recommended herbicide dose
[50] = test system: Avena sterilis; assay: Herbicidal activity against Avena sterilis accession P18 assessed as weed survival at 4 times field recommended herbicide dose
[51] = test system: Avena sterilis; assay: Herbicidal activity against Avena sterilis accession P10S assessed as weed survival at 1/32 times field recommended herbicide dose
[52] = test system: Avena sterilis; assay: Herbicidal activity against Avena sterilis accession P10S assessed as weed survival at 1/4 times field recommended herbicide dose
[53] = test system: Avena sterilis; assay: Herbicidal activity against Avena sterilis accession P12 assessed as weed survival at 4 times field recommended herbicide dose
[54] = test system: Avena sterilis; assay: Herbicidal activity against Avena sterilis accession P06S assessed as weed survival at 1/16 times field recommended herbicide dose
[55] = test system: Avena sterilis; assay: Herbicidal activity against Avena sterilis accession P14 assessed as weed survival at 4 times field recommended herbicide dose
[56] = test system: Avena sterilis; assay: Herbicidal activity against Avena sterilis accession P06S assessed as induction of weed mortality
[57] = test system: Avena sterilis; assay: Herbicidal activity against Avena sterilis accession P13S assessed as weed survival at 1/4 times field recommended herbicide dose
[58] = test system: Avena sterilis; assay: Herbicidal activity against Avena sterilis accession P06S assessed as weed survival at 1/32 times field recommended herbicide dose

COCc1cnc(C2=NC(C)(C(C)C)C(=O)N2)c(C(=O)O)c1 (stereo unspecified) [IMAZAMOX]
<50 gAi/ha: GR50 [26] | GR50 [29] | GR50 [30] | GR50 [35] | GR50 [37] | GR50 [44] | GR50 [45]
7 gAi/ha: GR50 [15]
14 gAi/ha: GR50 [11] | GR50 [23]
40%: Survival [57]
100%: Survival [18] | Survival [38] | Survival [48] | Survival [51]
3%: Survival [4]
80%: Survival [19]
9 gAi/ha: GR50 [56]
0%: Survival [1] | Survival [2] | Survival [3] | Survival [5] | Survival [6] | Survival [7] | Survival [8] | Survival [9] | Survival [10] | Survival [12] | Survival [13] | Survival [14] | Survival [16] | Survival [17] | Survival [20] | Survival [21] | Survival [22] | Survival [24] | Survival [25] | Survival [27] | Survival [28] | Survival [31] | Survival [32] | Survival [33] | Survival [34] | Survival [36] | Survival [39] | Survival [40] | Survival [41] | Survival [42] | Survival [43] | Survival [46] | Survival [47] | Survival [49] | Survival [50] | Survival [53] | Survival [55]
93%: Survival [54]
97%: Survival [58]
20%: Survival [52]

CCc1cc(C)cc(CC)c1-c1c(OC(=O)C(C)(C)C)n2n(c1=O)CCOCC2 [PINOXADEN]
100%: Survival [18] | Survival [38] | Survival [48] | Survival [51]
6.6 gAi/ha: GR50 [11]
17%: Survival [13]
<40 gAi/ha: GR50 [26] | GR50 [29] | GR50 [30] | GR50 [35] | GR50 [37] | GR50 [44] | GR50 [45]
3%: Survival [16] | Survival [57]
3.5 gAi/ha: GR50 [56]
0%: Survival [1] | Survival [2] | Survival [3] | Survival [6] | Survival [7] | Survival [8] | Survival [9] | Survival [10] | Survival [12] | Survival [14] | Survival [17] | Survival [20] | Survival [21] | Survival [22] | Survival [24] | Survival [25] | Survival [27] | Survival [28] | Survival [32] | Survival [33] | Survival [34] | Survival [39] | Survival [40] | Survival [41] | Survival [42] | Survival [43] | Survival [46] | Survival [47] | Survival [49] | Survival [50] | Survival [52] | Survival [53] | Survival [55]
4.1 gAi/ha: GR50 [15]
20%: Survival [4] | Survival [5] | Survival [31] | Survival [36]
97%: Survival [19] | Survival [58]
5.8 gAi/ha: GR50 [23]
80%: Survival [54]
